Source: publication PMC12299890 (Pharmaceuticals, 2025)
Entries after “also recorded” stand apart in the source; their conditions may differ.

Key:
[1] = Pharmacokinetics of MI in Wistar rat model after oral administration (Antonowski and co-workers); assay type: in vivo; conditions: rat serum; MI data of ref 30 vs SCI of this study
Description: Antonowski and co-workers examined the PK of MI in Wistar rat models.
Bioavailability studies in animal models are a critical step in evaluating how much of a substance is absorbed and becomes available in the body. A rat model is excellent to maximize the relevance of SCI to human health. Antonowski and co-workers used a rat model for the PK analysis of MI. In this study, a dose of 20 mg/kg MI was orally administrated to rats and afterwards, the serum concentration of MI was measured. […] Then, the concentration of MI began to decrease immediately. […] Studies should be extended to include intraperitoneal injection or direct injection into blood vessels to determine the bioactivity of these INSs.

[2] = cited from earlier work
[3] = parameters: method as in PMID 16250252; conditions: male Sprague-Dawley rats; cited from earlier work

AUC of MI compared with SCI [1]	Structure (SMILES)	Side effects of MI administration ([2]; oral MI)	Time of highest MI serum concentration (Cmax) after oral administration ([2]; serum, oral 20 mg/kg MI)	MI level 24 h after administration ([2]; serum, oral MI)	Relative bioavailability of oral administration compared to intraperitoneal injection [3]
lower than for SCI	O[C@H]1[C@H](O)[C@@H](O)[C@H](O)[C@@H](O)[C@H]1O [MI, myo-inositol]	no serious side effects	first hour	still higher than before the administration; also recorded: still higher than before the supplementation	–
–	O=C(O)[C@H]1O[C@@H](Oc2cc3oc(-c4ccc(O)cc4)cc(=O)c3c(O)c2O)[C@H](O)[C@@H](O)[C@@H]1O [scutellarin]	–	–	–	very low
